{
  "source": "patent US9078446B2",
  "about": "“Use of N-(tetrazol-4-yl)- or N-(triazol-3-yl)arylcarboxamides or their salts for controlling unwanted plants in areas of transgenic crop plants being tolerant to HPPD inhibitor herbicides” (BAYER INTELLECTUAL PROPERTY GMBH, priority 2011, dated 2015)",
  "type_in_all_cases": "in vivo",
  "key": {"[1]": {"system": "transgenic tobacco plants expressing tolerant HPPD enzymes", "assay": "Tolerance of tobacco plants expressing tolerant HPPD enzymes (all transgenes)", "from_the_text": "(§1) Genes coding for the selected HPPD were obtained from a member of the group of organisms consisting of Avena sativa, Pseudomonas fluorescens mutant G336W, Blepharisma japonicum and Kordia algicida and cloned into the binary vector pBin19 allowing the integration of DNA into the tobacco genome, under the control of the CaMV35S promoter. For the cloning procedures, see A2 above for Avena sativa, see B2 above for Pseudomonas fluorescens, mutant G336W, see PCT/EP2010/070567 (published as WO 2011/076882, Example 5; for Blepharisma japonicum (FMP37) and see PCT/EP2010/070575, Example 5 for Kordia algicida (FMP27). Between the sequence corresponding to the promoter and the sequence coding for the HPPD a DNA sequence coding for a transit peptide to the chloroplast was inserted, in order to add at the N-terminal extremity of the protein a target signal to allow the localization of the HPPD protein into the plant chloroplast.\n(§2) Seeds harvested from TO transformants will be put on standard soil for germination. Three weeks later plantlets (T1) will be transferred to single pots and grown under standard cultivation conditions (PCT/EP2010/070575, published as WO 2011/076889). Two weeks later, plants were sprayed with several N-(tetrazol-4-yl)- or N-(triazol-3-yl)arylcarboxamides as defined above.\n(§3) Tables F1 to F5: Evaluation of the Symptoms Observed Due to the Application of the Herbicides on Transgenic Tobacco Plants, Expressing the Mutant Pseudomonas fluorescens HPPD G336W, the Avena HPPD (AvHPPD), the HPPD from Kordia algicida FMP27 or the HPPD from Blepharisma japonicum (FMP37), Compared to Non-Tranformed Tobacco Plants (“Wt”).\n(§4) The herbicides (with “g Al/ha” meaning “g active ingredient/ha”) were applied on 8 to 10 plants originated from 1 to 3 independent transgenic events per transgene.\n(§5) The symptoms were evaluated and classified as following: • 3=Very strong damage • 2=Strong damage • 1=Light and transient damage • 0=No damage"}, "[2]": {"system": "non-transformed tobacco plants (Wt)", "assay": "Symptoms due to herbicide application on tobacco plants (damage classes 0-3)", "details": "50 g Al/ha, one week after application", "from_the_text": "as §2, §3, §4, §5"}, "[3]": {"system": "soybean plants expressing Pseudomonas fluorescens G336W mutant, FMP 27 and FMP 37", "assay": "Tolerance to HPPD inhibitors of soybean plants expressing tolerant HPPD enzymes", "details": "T1 soybean plants; one week after application", "from_the_text": "(§6) Genes coding for the selected HPPD were obtained from a member of the group of organisms consisting of Blepharisma japonicum and Kordia algicida and cloned into an appropriate binary vector allowing the integration of DNA into the soybean genome, under the control of the CaMV35S promoter. For the respective cloning procedures, see WO2011076882 (PCT/EP2010/070567), Example 9; for Blepharisma japonicum (FMP37) and WO2011076889 (PCT/EP2010/070575), Example 9 for Kordia algicida (FMP27).\nBetween the sequence corresponding to the promoter and the sequence coding for the HPPD a DNA sequence coding for a transit peptide to the chloroplast was inserted, in order to add at the N-terminal extremity of the protein a target signal to allow the localization of the HPPD protein into the plant chloroplast. By using the vectors “pFCO112” (Blepharisma japonicum, WO2011076882), pFCO116 (Korida algicida, WO2011076889), and pFCO117” (see Example B2, above), soybean transformation was achieved as described in Example 10 of WO2011076882 (PCT/EP2010/070567) for Blepharisma japonicum (FMP37) and WO2011076889 (PCT/EP2010/070575) for Kordia algicida (FMP27). Seeds from TO events showing tolerance to tembotrione were harvested.\nT1 Soybean seeds were transferred to single pots and grown under standard cultivation conditions, see WO2011076882.\nTwo weeks later, plants will be sprayed with several N-(tetrazol-4-yl)- or N-(triazol-3-yl)arylcarboxamides as defined above."}, "[4]": {"system": "cotton plants expressing FMP 27 and FMP 37", "assay": "Tolerance to HPPD inhibitors of cotton plants expressing tolerant HPPD enzymes", "details": "T1 cotton plants; one week after application", "from_the_text": "as §6, with “the cotton” for “the soybean”, “Example 11;” for “Example 9;”, “Example 11” for “Example 9”\nBetween the sequence corresponding to the promoter and the sequence coding for the HPPD a DNA sequence coding for a transit peptide to the chloroplast was inserted, in order to add at the N-terminal extremity of the protein a target signal to allow the localization of the HPPD protein into the plant chloroplast. Cotton transformation was achieved as described in Example 12 of WO2011076882 (PCT/EP2010/070567) for Blepharisma japonicum (FMP37) and WO2011076889 (PCT/EP2010/070575) for Kordia algicida (FMP27). Seeds from T0 events showing tolerance to tembotrione were harvested.\nT1 Cotton seeds were transferred to single pots and grown under standard cultivation conditions, see WO2011076882 (PCT/EP2010/070567) for Blepharisma japonicum (FMP37) and WO2011076889 (PCT/EP2010/070575) for Kordia algicida (FMP27).\nAt least 4 weeks later, plants will be sprayed with several N-(tetrazol-4-yl)- or N-(triazol-3-yl)arylcarboxamides as defined above."}, "[5]": {"system": "transgenic tobacco plants expressing Avena HPPD (AvHPPD)", "assay": "Symptoms due to herbicide application on transgenic tobacco plants (damage classes 0-3)", "details": "AvHPPD line 659; 50 g Al/ha; one week after application", "from_the_text": "as §1, §2, §3, §4, §5"}, "[6]": {"system": "transgenic tobacco plants expressing HPPD from Kordia algicida FMP27", "assay": "Symptoms due to herbicide application on transgenic tobacco plants (damage classes 0-3)", "details": "50 g Al/ha, one week after application", "from_the_text": "as §1, §2, §3, §4, §5"}, "[7]": {"system": "transgenic tobacco plants expressing HPPD from Blepharisma japonicum (FMP37)", "assay": "Symptoms due to herbicide application on transgenic tobacco plants (damage classes 0-3)", "details": "50 g Al/ha, one week after application", "from_the_text": "as §1, §2, §3, §4, §5"}, "[8]": {"system": "transgenic tobacco plants expressing mutant Pseudomonas fluorescens HPPD G336W (PfHPPD-G336W)", "assay": "Symptoms due to herbicide application on transgenic tobacco plants (damage classes 0-3)", "details": "PfHPPD-G336W line 646; 50 g Al/ha; one week after application", "from_the_text": "as §1, §2, §3, §4, §5"}},
  "data": [
    {"compound": "Cn1nnnc1NC(=O)c1ccc(C(F)(F)F)cc1S(C)(=O)=O", "note": "[Compound 4-25]", "values": [
      {"measurement": "tolerance of the transgenic tobacco plants (symptoms due to application of the herbicide)", "setting": "[1]; T1 plants sprayed, evaluated one week after application", "result": "good tolerance"},
      {"measurement": "sensitivity of transgenic tobacco plants compared to wild type (wt) plants", "setting": "[1]; all tested independent lines, agronomically relevant dose", "result": "less sensitive"},
      {"measurement": "number of plants with Damage 0 (No damage)", "setting": "[2]", "result": 0},
      {"measurement": "number of plants with Damage 1 (Light and transient damage)", "setting": "[2]", "result": 0},
      {"measurement": "number of plants with Damage 2 (Strong damage)", "setting": "[2]", "result": 0},
      {"measurement": "number of plants with Damage 3 (Very strong damage)", "setting": "[2]", "result": 10},
      {"measurement": "tolerance of transgenic plants compared to the wild-type soybean plants", "setting": "[3]", "result": "superior tolerance"},
      {"measurement": "tolerance of transgenic plants compared to the wild-type cotton plants", "setting": "[4]", "result": "superior tolerance"},
      {"measurement": "number of plants with Damage 0 (No damage)", "setting": "[5]", "result": 6},
      {"measurement": "number of plants with Damage 1 (Light and transient damage)", "setting": "[5]", "result": 1},
      {"measurement": "number of plants with Damage 2 (Strong damage)", "setting": "[5]", "result": 0},
      {"measurement": "number of plants with Damage 3 (Very strong damage)", "setting": "[5]", "result": 3},
      {"measurement": "number of plants with Damage 0 (No damage)", "setting": "[6]; FMP27 line 733", "result": 9},
      {"measurement": "number of plants with Damage 1 (Light and transient damage)", "setting": "[6]; FMP27 line 733", "result": 1},
      {"measurement": "number of plants with Damage 2 (Strong damage)", "setting": "[6]; FMP27 line 733", "result": 0},
      {"measurement": "number of plants with Damage 3 (Very strong damage)", "setting": "[6]; FMP27 line 733", "result": 0},
      {"measurement": "number of plants with Damage 0 (No damage)", "setting": "[6]; FMP27 line 734", "result": 6},
      {"measurement": "number of plants with Damage 1 (Light and transient damage)", "setting": "[6]; FMP27 line 734", "result": 3},
      {"measurement": "number of plants with Damage 2 (Strong damage)", "setting": "[6]; FMP27 line 734", "result": 0},
      {"measurement": "number of plants with Damage 3 (Very strong damage)", "setting": "[6]; FMP27 line 734", "result": 1},
      {"measurement": "number of plants with Damage 0 (No damage)", "setting": "[6]; FMP27 line 735", "result": 5},
      {"measurement": "number of plants with Damage 1 (Light and transient damage)", "setting": "[6]; FMP27 line 735", "result": 3},
      {"measurement": "number of plants with Damage 2 (Strong damage)", "setting": "[6]; FMP27 line 735", "result": 0},
      {"measurement": "number of plants with Damage 3 (Very strong damage)", "setting": "[6]; FMP27 line 735", "result": 0},
      {"measurement": "number of plants with Damage 0 (No damage)", "setting": "[7]; FMP37 line 749", "result": 8},
      {"measurement": "number of plants with Damage 1 (Light and transient damage)", "setting": "[7]; FMP37 line 749", "result": 0},
      {"measurement": "number of plants with Damage 2 (Strong damage)", "setting": "[7]; FMP37 line 749", "result": 0},
      {"measurement": "number of plants with Damage 3 (Very strong damage)", "setting": "[7]; FMP37 line 749", "result": 2},
      {"measurement": "number of plants with Damage 0 (No damage)", "setting": "[7]; FMP37 line 754", "result": 3},
      {"measurement": "number of plants with Damage 1 (Light and transient damage)", "setting": "[7]; FMP37 line 754", "result": 5},
      {"measurement": "number of plants with Damage 2 (Strong damage)", "setting": "[7]; FMP37 line 754", "result": 1},
      {"measurement": "number of plants with Damage 3 (Very strong damage)", "setting": "[7]; FMP37 line 754", "result": 1},
      {"measurement": "number of plants with Damage 0 (No damage)", "setting": "[7]; FMP37 line 795", "result": 7},
      {"measurement": "number of plants with Damage 1 (Light and transient damage)", "setting": "[7]; FMP37 line 795", "result": 0},
      {"measurement": "number of plants with Damage 2 (Strong damage)", "setting": "[7]; FMP37 line 795", "result": 1},
      {"measurement": "number of plants with Damage 3 (Very strong damage)", "setting": "[7]; FMP37 line 795", "result": 2},
      {"measurement": "number of plants with Damage 0 (No damage)", "setting": "[8]", "result": 10},
      {"measurement": "number of plants with Damage 1 (Light and transient damage)", "setting": "[8]", "result": 0},
      {"measurement": "number of plants with Damage 2 (Strong damage)", "setting": "[8]", "result": 0},
      {"measurement": "number of plants with Damage 3 (Very strong damage)", "setting": "[8]", "result": 0}
    ]}
  ]
}
